Measured values from the supplement of paper PMC11061612.

How the values were obtained:
[1] = test system: T-T (Esophageal Squamous Cell Carcinoma); test: Bliss excess, mean over the matrix (fraction); higher = more synergy
Method in brief: (§1)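 After 24 hours at 37°C and 5% CO2 in 1536-well plates, cells in DMEM/F12 or RPMI plus 10% FBS received two-drug dose matrices for 72 hours. Viability came from CellTiter-Glo 2.0 luminescence and was scaled as inhibition, anchored at 0 by vehicle wells and at 1 by blank wells. Combination Emax is taken as the second-highest inhibition in the matrix, and Bliss excess as the observed combination effect less EA + EB − EA·EB, with EA and EB the single-agent effects.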

[2] = test system: VMRC-RCZ (Kidney Carcinoma); test: as above
Method in brief: as §1

`C=CCn1c(=O)c2cnc(Nc3ccc(N4CCN(C)CC4)cc3)nc2n1-c1cccc(C(C)(C)O)n1` [AZD1775] + CCc1c2c(nc3ccc(O)cc13)-c1cc3c(c(=O)n1C2)COC(=O)[C@]3(O)CC [SN-38] (first compound max 1 µM, partner max 0.3 µM) showed a Bliss excess [1] of -0.031 and a Bliss excess [2] of -0.0623.

In the case of `CN(CCO)CC[C@H](CSc1ccccc1)Nc1ccc(S(=O)(=O)NC(=O)c2ccc(N3CCC([C@@H](O)c4ccccc4-c4ccc(Cl)cc4)CC3)cc2)cc1S(=O)(=O)C(F)(F)F` [AZD4320] + CC(=O)O[C@H]1C(=O)[C@@]2(C)[C@H]([C@H](OC(=O)c3ccccc3)[C@]3(O)C[C@H](OC(=O)[C@H](O)[C@@H](NC(=O)c4ccccc4)c4ccccc4)C(C)=C1C3(C)C)[C@]1(OC(C)=O)CO[C@@H]1C[C@@H]2O [Paclitaxel] (first compound max 1 µM, 7x7, partner max 3 µM), the Bliss excess [1] is reported as 0.0528 and the Bliss excess [2] is reported as 0.128.

`CN(CCO)CC[C@H](CSc1ccccc1)Nc1ccc(S(=O)(=O)NC(=O)c2ccc(N3CCC([C@@H](O)c4ccccc4-c4ccc(Cl)cc4)CC3)cc2)cc1S(=O)(=O)C(F)(F)F` [AZD4320] + CS(=O)(=O)CCNCc1ccc(-c2ccc3ncnc(Nc4ccc(OCc5cccc(F)c5)c(Cl)c4)c3c2)o1 [Lapatinib] (first compound max 1 µM, 7x7, partner max 10 µM) showed a Bliss excess [1] of -0.0055 and a Bliss excess [2] of -0.0072.

`Cc1c2c(nn1C)CSCc1cc(n(C)n1)CSc1cc(c3ccccc3c1)OCCCc1c(C(=O)O)n(C)c3c-2c(Cl)ccc13` [AZD5991] + CC(=O)O[C@H]1C(=O)[C@@]2(C)[C@H]([C@H](OC(=O)c3ccccc3)[C@]3(O)C[C@H](OC(=O)[C@H](O)[C@@H](NC(=O)c4ccccc4)c4ccccc4)C(C)=C1C3(C)C)[C@]1(OC(C)=O)CO[C@@H]1C[C@@H]2O [Paclitaxel] (first compound max 1 µM, 7x7, partner max 3 µM) was tested, and the Bliss excess [1] was -0.0016 and the Bliss excess [2] was -0.0234.

With `Cc1c2c(nn1C)CSCc1cc(n(C)n1)CSc1cc(c3ccccc3c1)OCCCc1c(C(=O)O)n(C)c3c-2c(Cl)ccc13` [AZD5991] + CS(=O)(=O)CCNCc1ccc(-c2ccc3ncnc(Nc4ccc(OCc5cccc(F)c5)c(Cl)c4)c3c2)o1 [Lapatinib] (first compound max 1 µM, 7x7, partner max 10 µM) the Bliss excess [1] was 0.0522 and the Bliss excess [2] was -0.0195.

`C[C@@H]1COCCN1c1cc(C2([S@](C)(=N)=O)CC2)nc(-c2ccnc3[nH]ccc23)n1` [AZD6738] + C1CC(C1)(C(=O)[O-])C(=O)[O-].N.N.[Pt+2] [Carboplatin] (first compound max 10 µM, 7x7, partner max 10 µM) showed a Bliss excess [1] of -0.0661 and a Bliss excess [2] of -0.0249.

Work on `Cc1cc2ncnn2cc1Nc1ncc2c(n1)n(C1CCOCC1)c(=O)n2C` [AZD7648] + COc1cc([C@@H]2c3cc4c(cc3[C@@H](O[C@@H]3O[C@@H]5CO[C@@H](C)O[C@H]5[C@H](O)[C@H]3O)[C@H]3COC(=O)[C@H]23)OCO4)cc(OC)c1O [Etoposide] (first compound max 10 µM, 7x7, partner max 10 µM) yielded a Bliss excess [1] of 0.0254 and a Bliss excess [2] of 0.0743.

`C[C@@H](Nc1cc(F)cc(F)c1)c1cc(C(=O)N(C)C)cc2c(=O)cc(N3CCOCC3)oc12` [AZD8186] + C1CN(CCC1(C(=O)N[C@@H](CCO)C2=CC=C(C=C2)Cl)N)C3=NC=NC4=C3C=CN4 [AZD5363] (first compound max 10 µM, 7x7, partner max 10 µM) was tested, and the Bliss excess [1] was 0.0073 and the Bliss excess [2] was -0.0134.

`C[C@@H](Nc1cc(F)cc(F)c1)c1cc(C(=O)N(C)C)cc2c(=O)cc(N3CCOCC3)oc12` [AZD8186] + CC(=O)c1c(C)c2cnc(Nc3ccc(N4CCNCC4)cn3)nc2n(C2CCCC2)c1=O [Palbociclib] (first compound max 10 µM, 7x7, partner max 10 µM) was tested, and the Bliss excess [1] was 0.0135 and the Bliss excess [2] was 0.12.

`C[C@@H](Oc1cc(-c2cnn(C3CCNCC3)c2)cnc1N)c1c(Cl)ccc(F)c1Cl` [Crizotinib] + CC1=C(C(=CC=C1)Cl)NC(=O)C2=CN=C(S2)NC3=CC(=NC(=N3)C)N4CCN(CC4)CCO [Dasatinib] (first compound max 10 µM, 7x7, partner max 2 µM) was tested, and the Bliss excess [1] was 0.0322 and the Bliss excess [2] was 0.0518.

Work on `C[C@@H](Oc1cc(-c2cnn(C3CCNCC3)c2)cnc1N)c1c(Cl)ccc(F)c1Cl` [Crizotinib] + Cn1cnc2c(F)c(Nc3ccc(Br)cc3Cl)c(C(=O)NOCCO)cc21 [Selumetinib] (first compound max 10 µM, 7x7, partner max 10 µM) yielded a Bliss excess [1] of 0.0159 and a Bliss excess [2] of -0.0338.

With `O=C(c1cc(Cc2n[nH]c(=O)c3ccccc23)ccc1F)N1CCN(C(=O)C2CC2)CC1` [Olaparib] + CC1(C)CCC(CN2CCN(c3ccc(C(=O)NS(=O)(=O)c4ccc(NCC5CCOCC5)c([N+](=O)[O-])c4)c(Oc4cnc5[nH]ccc5c4)c3)CC2)=C(c2ccc(Cl)cc2)C1 [Venetoclax] (first compound max 10 µM, 7x7, partner max 1 µM) the Bliss excess [1] was -0.0375 and the Bliss excess [2] was -0.052.

For `O=C(c1cc(Cc2n[nH]c(=O)c3ccccc23)ccc1F)N1CCN(C(=O)C2CC2)CC1` [Olaparib] + COc1nnc2ccc(N3CCC(c4ccc(OCCN5CCN(C)C(=O)[C@H]5C)cc4)CC3)nn12 [AZD5153] (first compound max 10 µM, 7x7, partner max 1 µM), the Bliss excess [1] was -0.0283 and the Bliss excess [2] was -0.0243.

With `O=C(c1cc(Cc2n[nH]c(=O)c3ccccc23)ccc1F)N1CCN(C(=O)C2CC2)CC1` [Olaparib] + Cc1c2c(nn1C)CSCc1cc(n(C)n1)CSc1cc(c3ccccc3c1)OCCCc1c(C(=O)O)n(C)c3c-2c(Cl)ccc13 [AZD5991] (first compound max 10 µM, 7x7, partner max 1 µM) the Bliss excess [1] was -0.0217 and the Bliss excess [2] was -0.049.

With `N#Cc1cnc(Nc2cc(NC[C@H]3CNCCO3)c(C(F)(F)F)cn2)cn1` [SRA737] + C=CCn1c(=O)c2cnc(Nc3ccc(N4CCN(C)CC4)cc3)nc2n1-c1cccc(C(C)(C)O)n1 [AZD1775] (first compound max 10 µM, partner max 1 µM) the Bliss excess [1] was 0.0665 and the Bliss excess [2] was 0.0259.

With `N#Cc1cnc(Nc2cc(NC[C@H]3CNCCO3)c(C(F)(F)F)cn2)cn1` [SRA737] + O=c1[nH]cc(F)c(=O)[nH]1 [5-Fluorouracil] (first compound max 10 µM, 7x7, partner max 20 µM) the Bliss excess [1] was 0.0483 and the Bliss excess [2] was -0.0163.
